Experimental data from PubChem BioAssay AID330 (DTP/NCI, 2004).
Where “and” joins values, the source holds several entries; their conditions need not be identical. Identical values can stand only once. Inconclusive results and toxic doses are left out. How the source made its calls: active means survival T/C of 150% or more; inactive means T/C below 125% in these data.

Tested on: P388 leukemia ip, CD2F1 mice, survival T/C
Test: NCI In Vivo Anticancer Drug Screen. Data for tumor model P388 Leukemia (intraperitoneal) in CD2F1 (CDF1) mice
Details: endpoint: median survival time, higher = longer survival
In short: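 Mice carrying the transplanted tumor received test compound or vehicle. Survival was recorded in each group, and the value is the treated-group measurement divided by that of the vehicle-treated control group.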

[1] = dose: 100.0 mg/kg/injection, schedule: Q04DX003 (ip), vehicle: saline with Tween-80
[2] = dose: 200.0 mg/kg/injection, schedule: Q04DX003 (ip), vehicle: saline with Tween-80
[3] = dose: 400.0 mg/kg/injection, schedule: Q04DX003 (ip), vehicle: saline with Tween-80
[4] = dose: 60.0 mg/kg/injection, schedule: Q01DX005 (ip), vehicle: saline with Tween-80
[5] = dose: 120.0 mg/kg/injection, schedule: Q01DX005 (ip), vehicle: saline with Tween-80
[6] = dose: 240.0 mg/kg/injection, schedule: Q01DX005 (ip), vehicle: saline with Tween-80
[7] = dose: 100.0 mg/kg/injection, schedule: Q01DX001 (ip), vehicle: Klucel (hydroxypropylcellulose) (HPC)
[8] = dose: 200.0 mg/kg/injection, schedule: Q01DX001 (ip), vehicle: Klucel (hydroxypropylcellulose) (HPC)
[9] = dose: 400.0 mg/kg/injection, schedule: Q01DX001 (ip), vehicle: Klucel (hydroxypropylcellulose) (HPC)

Measured: T/C

COc1cccc(C(=O)O)c1OC
inactive: [1] 100 % of control | [2] 100 % of control | [3] 90 % of control

CCC1=NO[C@@H](C)[C@H]1C(=O)OCc1ccccc1
inactive: [4] 106 % of control | [5] 100 % of control | [6] 97 % of control

N#C[C@@H]1C2C=CC(CC2)[C@H]1C#N
inactive: dose: 1.25 mg/kg/injection, schedule: Q01DX009 (ip), vehicle: saline with Tween-80 100 % of control | dose: 1.25 mg/kg/injection, schedule: Q04DX003 (ip), vehicle: saline with Tween-80 91 % of control | dose: 2.5 mg/kg/injection, schedule: Q01DX009 (ip), vehicle: saline with Tween-80 112 % of control | dose: 2.5 mg/kg/injection, schedule: Q04DX003 (ip), vehicle: saline with Tween-80 104 % of control | dose: 5.0 mg/kg/injection, schedule: Q04DX003 (ip), vehicle: saline with Tween-80 91 % of control

O=C1CSc2cc(F)ccc2N1
inactive: dose: 50.0 mg/kg/injection, schedule: Q01DX009 (ip), vehicle: saline 91 % of control | dose: 100.0 mg/kg/injection, schedule: Q01DX009 (ip), vehicle: saline 91 % of control | dose: 200.0 mg/kg/injection, schedule: Q01DX009 (ip), vehicle: saline 97 % of control

CC1(C)C(=O)C(/C=C\c2ccccc2[N+](=O)[O-])Cc2ccccc21 (centres undefined)
inactive: [7] 100 % of control | [8] 99 % of control | [9] 100 % of control

C=CCOc1ccccc1/C(Cl)=N/Nc1ccc([N+](=O)[O-])cc1[N+](=O)[O-]
inactive: [1] 97 % of control | [2] 94 % of control | [3] 89 % of control

O=c1sc2ccccc2n2cccc12
inactive: [4] 92 % of control | [5] 94 % of control | [6] 92 % of control

Nc1nc2c(c(=O)[nH]1)[N+]1=CN(c3ccc(C(=O)NC(CCC(=O)O)C(=O)O)cc3)CC1CC2 (centres undefined)
inactive: dose: 50.0 mg/kg/injection, schedule: Q01DX001 (ip), vehicle: saline 96 % of control | dose: 50.0 mg/kg/injection, schedule: Q04DX003 (ip), vehicle: saline 97 % of control | dose: 100.0 mg/kg/injection, schedule: Q01DX001 (ip), vehicle: saline 94 % of control | dose: 100.0 mg/kg/injection, schedule: Q04DX003 (ip), vehicle: saline 100 % of control | dose: 200.0 mg/kg/injection, schedule: Q01DX001 (ip), vehicle: saline 94 % of control | dose: 200.0 mg/kg/injection, schedule: Q04DX003 (ip), vehicle: saline 96 % of control

CC(C)[C@H](N)C(=O)NCCNC(=O)[C@@H](N)C(C)C
inactive: dose: 60.0 mg/kg/injection, schedule: Q01DX005 (ip), vehicle: saline 91 % of control | dose: 120.0 mg/kg/injection, schedule: Q01DX005 (ip), vehicle: saline 98 % of control

O=C1C2CCC(N1c1ccc(F)cc1)n1c(=O)n(-c3ccccc3)c(=O)n12 (centres undefined)
inactive: [7] 104 % of control | [8] 94 % of control | [9] 100 % of control

CC(=O)NN1C(=O)Cc2ccccc2C1C(N)=O (centres undefined)
inactive: dose: 50.0 mg/kg/injection, schedule: Q01DX009 (ip), vehicle: Klucel (hydroxypropylcellulose) (HPC) 103 % of control | dose: 100.0 mg/kg/injection, schedule: Q01DX009 (ip), vehicle: Klucel (hydroxypropylcellulose) (HPC) 111 % of control | dose: 200.0 mg/kg/injection, schedule: Q01DX009 (ip), vehicle: Klucel (hydroxypropylcellulose) (HPC) 103 % of control

CC(NNC(=S)N1CCCCCC1)c1cc2ccccc2cn1 (centres undefined)
active: dose: 400.0 mg/kg/injection, schedule: Q01DX005 (ip), vehicle: saline with Tween-80 153 % of control
inactive: dose: 50.0 mg/kg/injection, schedule: Q01DX005 (ip), vehicle: saline with Tween-80 108 % of control and 98 % of control | dose: 100.0 mg/kg/injection, schedule: Q01DX005 (ip), vehicle: saline with Tween-80 112 % of control | dose: 200.0 mg/kg/injection, schedule: Q01DX005 (ip), vehicle: saline with Tween-80 123 % of control

CN1CCN(Cc2ncc(C3CCCCC3)c(=O)[nH]2)CC1
inactive: dose: 25.0 mg/kg/injection, schedule: Q01DX009 (ip), vehicle: saline with Tween-80 100 % of control | dose: 50.0 mg/kg/injection, schedule: Q01DX009 (ip), vehicle: saline with Tween-80 102 % of control | dose: 100.0 mg/kg/injection, schedule: Q01DX009 (ip), vehicle: saline with Tween-80 97 % of control
